25 compounds from patent US7902373B2 (Pfizer Inc, priority 2006, dated 2011) can be followed below.

For orientation: IC50 means the concentration needed to halve the response being measured.

This assay deals with human recombinant H-PGDS (Homo sapiens, UniProt O60760). The assay can be described thus: Fluorescence intensity h-PGDS TBA enzyme assay. Type of assay: biochemical. Conditions: Examples up to 622 (and 3a, 3b).
human recombinant H-PGDS, sequence (O60760 whole entry): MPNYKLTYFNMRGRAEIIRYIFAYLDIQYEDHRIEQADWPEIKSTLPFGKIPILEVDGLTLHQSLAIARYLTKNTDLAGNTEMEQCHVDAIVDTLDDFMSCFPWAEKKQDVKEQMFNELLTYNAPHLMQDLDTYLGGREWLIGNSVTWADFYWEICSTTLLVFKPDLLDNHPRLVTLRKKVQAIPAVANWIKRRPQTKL
Regarding `CC(C)CN(C)C(=O)c1ccc(N2CCC(NC(=O)c3ccc(-c4cccc(F)c4)nc3)CC2)nn1` [Example 159, 6-[4-({[6-(3-Fluorophenyl)pyridin-3-yl]carbonyl}amino)piperidin-1-yl]-N-isobutyl-N-methylpyridazine-3-carboxamide], the IC50 worked out at 1.59 nM. The value for `Cc1cc(NC(=O)c2ccc(N3CCC(NC(=O)c4ccc(-c5cccc(F)c5)nc4)CC3)nn2)n(C)n1` [Example 160, N-(1,3-Dimethyl-1H-pyrazol-5-yl)-6-[4-({[6-(3-fluorophenyl)pyridin-3-yl]carbonyl}amino)piperidin-1-yl]pyridazine-3-carboxamide] was 0.483 nM.

Turning to `Cn1c(-c2cccc(C#N)c2)nc2c(N3CCC(NC(=O)c4ccc(-c5cccc(F)c5)nc4)CC3)ncnc21` [Example 161, N-{1-[8-(3-Cyanophenyl)-9-methyl-9H-purin-6-yl]piperidin-4-yl}-6-(3-fluorophenyl)nicotinamide], the IC50 is 3.85 nM.

Regarding `Cc1cnc(Cn2cnc3c(N4CCC(NC(=O)c5ccc(-c6cccc(F)c6)nc5)CC4)ncnc32)cn1` [Example 162, 6-(3-Fluorophenyl)-N-(1-{9-[(5-methylpyrazin-2-yl)methyl]-9H-purin-6-yl}piperidin-4-yl)nicotinamide], the concentration for half-maximal inhibition (IC50) amounted to 1.1 nM. Consider `O=C(NC1CCN(c2ccc(C(=O)NCC3CCCCC3)nn2)CC1)c1ccc(-c2cccc(F)c2)nc1` [Example 163, N-(Cyclohexylmethyl)-6-[4-({[6-(3-fluorophenyl)pyridin-3-yl]carbonyl}amino)piperidin-1-yl]pyridazine-3-carboxamide], for which the IC50 was 14.5 nM.

In the case of `O=C(NC1CCN(c2ccc(C(=O)NCCN3CCNC3=O)nn2)CC1)c1ccc(-c2cccc(F)c2)nc1` [Example 164, 6-[4-({[6-(3-Fluorophenyl)pyridin-3-yl]carbonyl}amino)piperidin-1-yl]-N-[2-(2-oxoimidazolidin-1-yl)ethyl]pyridazine-3-carboxamide], the IC50 was 0.422 nM.

`O=C(NC1CCN(c2ncccc2C(=O)N2CCCC2)CC1)c1ccc(-c2cccc(F)c2)nc1` [Example 165, 6-(3-Fluorophenyl)-N-{1-[3-(pyrrolidin-1-ylcarbonyl)pyridin-2-yl]piperidin-4-yl}nicotinamide]: the IC50 is 1.16 nM. As for `O=C(NC1CCN(c2ncc3ccccc3n2)CC1)c1ccc(-c2cccc(F)c2)nc1` [Example 166, 6-(3-Fluorophenyl)-N-(1-quinazolin-2-ylpiperidin-4-yl)nicotinamide], the half-inhibitory concentration (IC50) was 3.44 nM. The value for `COC(=O)c1cnc(N2CCC(NC(=O)c3ccc(-c4cccc(F)c4)nc3)CC2)cn1` [Example 167, Methyl 5-[4-({[6-(3-fluorophenyl)pyridin-3-yl]carbonyl}amino)piperidin-1-yl]pyrazine-2-carboxylate] was 3.13 nM; that for `Cc1cc(NC(=O)c2cccnc2N2CCC(NC(=O)c3ccc(-c4cccc(F)c4)nc3)CC2)no1` [Example 168, 2-[4-({[6-(3-Fluorophenyl)pyridin-3-yl]carbonyl}amino)piperidin-1-yl]-N-(5-methylisoxazol-3-yl)nicotinamide] was 2.53 nM.

For the compound `CCc1cnc(CC)c(N2CCC(NC(=O)c3ccc(-c4cccc(F)c4)nc3)CC2)n1` [Example 169, N-[1-(3,6-Diethylpyrazin-2-yl)piperidin-4-yl]-6-(3-fluorophenyl)nicotinamide], the IC50 was 23.2 nM. As for `NC(=O)c1cc2c(nc1N1CCC(NC(=O)c3ccc(-c4cccc(F)c4)nc3)CC1)CCC2` [Example 170, 2-[4-({[6-(3-Fluorophenyl)pyridin-3-yl]carbonyl}amino)piperidin-1-yl]-6,7-dihydro-5H-cyclopenta[b]pyridine-3-carboxamide], the figure is 1.77 nM; as for `O=C(NC1CCN(c2ncc3cccnc3n2)CC1)c1ccc(-c2cccc(F)c2)nc1` [Example 171, 6-(3-Fluorophenyl)-N-(1-pyrido[2,3-d]pyrimidin-2-ylpiperidin-4-yl)nicotinamide], 1.41 nM; as for `O=C(NC1CCN(c2nccc(-c3cccc(F)c3)n2)CC1)c1ccc(-c2cccc(F)c2)nc1` [Example 172, 6-(3-Fluorophenyl)-N-{1-[4-(3-fluorophenyl)pyrimidin-2-yl]piperidin-4-yl}nicotinamide], 35 nM. Turning to `COc1cc2ncc(N3CCC(NC(=O)c4ccc(-c5cccc(F)c5)nc4)CC3)nc2cc1OC` [Example 173, N-[1-(6,7-Dimethoxyquinoxalin-2-yl)piperidin-4-yl]-6-(3-fluorophenyl)nicotinamide], the IC50 was found to be 16 nM.

With `O=C(NC1CCN(c2ncc3ccc(F)cc3n2)CC1)c1ccc(-c2cccc(F)c2)nc1` [Example 174, 6-(3-Fluorophenyl)-N-[1-(7-fluoroquinazolin-2-yl)piperidin-4-yl]nicotinamide], the IC50 turned out to be 8.97 nM. The value for `Cc1nc(N2CCC(NC(=O)c3ccc(-c4cccc(F)c4)nc3)CC2)ccc1C#N` [Example 175, N-[1-(5-Cyano-6-methylpyridin-2-yl)piperidin-4-yl]-6-(3-fluorophenyl)nicotinamide] was 5.4 nM. `Cc1nc(N)c2nc(N3CCC(NC(=O)c4ccc(-c5cccc(F)c5)nc4)CC3)cnc2n1` [Example 176, N-[1-(4-Amino-2-methylpteridin-6-yl)piperidin-4-yl]-6-(3-fluorophenyl)nicotinamide]: the half-maximal inhibitory concentration (IC50) came to 0.759 nM. The value for `COc1cccc(-c2ccnc(N3CCC(NC(=O)c4ccc(-c5cccc(F)c5)nc4)CC3)n2)c1` [Example 177, 6-(3-Fluorophenyl)-N-{1-[4-(3-methoxyphenyl)pyrimidin-2-yl]piperidin-4-yl}nicotinamide] was 68.4 nM. With `COc1ccc2ncnc(N3CCC(NC(=O)c4ccc(-c5cccc(F)c5)nc4)CC3)c2c1` [Example 178, 6-(3-Fluorophenyl)-N-[1-(6-methoxyquinazolin-4-yl)piperidin-4-yl]nicotinamide], the IC50 turned out to be 0.735 nM.

`CCOc1cc(CN2CCC(NC(=O)c3ccc(-c4cccc(F)c4)nc3)CC2)ccc1O` [Example 179, N-(1-(3-Ethoxy-4-hydroxybenzyl)piperidin-4-yl)-6-(3-fluorophenyl)nicotinamide]: the 50% inhibitory concentration (IC50) was 2.26 nM. As for `Cc1cn(CCN2CCC(NC(=O)c3ccc(-c4cccc(F)c4)nc3)CC2)c(=O)[nH]c1=O` [Example 180, 6-(3-Fluorophenyl)-N-{1-[2-(5-methyl-2,4-dioxo-34-dihydropyrimidin-1(2H)-yl)ethyl]piperidin-4-yl}nicotinamide], the half-maximal inhibitory concentration (IC50) amounted to 0.372 nM.

`O=C(NC1CCN(Cc2cccc(-c3ncccn3)c2)CC1)c1ccc(-c2cccc(F)c2)nc1` [Example 181, 6-(3-Fluorophenyl)-N-[1-(3-pyrimidin-2-ylbenzyl)piperidin-4-yl]nicotinamide]: the IC50 was 3.4 nM.

Regarding `O=C(NC1CCN(Cc2c[nH]nc2-c2ccccc2)CC1)c1ccc(-c2cccc(F)c2)nc1` [Example 182, 6-(3-Fluorophenyl)-N-{1-[(3-phenyl-1H-pyrazol-4-yl)methyl]piperidin-4-yl}nicotinamide], the IC50 worked out at 0.424 nM. The value for `O=C(NC1CCN(Cc2c[nH]c3cc(F)ccc23)CC1)c1ccc(-c2cccc(F)c2)nc1` [Example 183, N-{1-[(6-Fluoro-1H-indol-3-yl)methyl]piperidin-4-yl}-6-(3-fluorophenyl)nicotinamide] was 1.12 nM.
